Assay results taken from US9427433B2, “Methods and compositions for enhancing fertility and/or inhibiting pregnancy failure and restoring glucose tolerance” (Queen's University at Kingston, priority 2011, dated 2016).

What was measured:
Assay type in all cases: in vivo, mouse
[1] = system: uterine cytokines (IFN-γ, TNFα, IL16, IL12 family and others); experiment: Cytokine multiplex profiling in uteri at peri-implantation
Description: In all untreated or vehicle-treated diabetic mice, an aberrant over-expression of IFN-γ, TNFα and IL16 accounted for the immune-cytotoxicity related implantation failure in these mice.

NOD and NZO mice = experiment: Implantation rate and embryonic/fetal resorption after tacrolimus; conditions: short-term administration
Description: Fifty four NOD mice at the prediabetic and early diabetic stages were carefully selected to match the criteria of being 2 standard deviation heavier in body weight than their age-matched normoglycemic control mice and having blood glucose value of >14.9 mM/1 during the glucose tolerance test. The selected mice were 9 weeks old and were treated with 0.1 mg/kg q2d of tacrolimus (Prograf (5 mg/ml), Astellas) subcutaneously administered in 0.2 ml saline for three weeks after which animals were mated to males of the same strain (See FIG. 1). Vehicle (0.2 ml saline, s.q.) treated hyperglycemic NOD female mice were allowed two weeks in diabetes before they were mated to males of the same strain. […]
Twenty NZO and DIO/B6 female mice were maintained on a high fat diet consisted of 60% kcal fat, 20% kcal protein and 20% kcal carbohydrate, with a total energy mass of 5.24 kcal/gm (D12492, Research Diets Inc.; Cedarlane Laboratories, Burlington, Ontario, Canada) starting at 7 weeks of age and maintained on the diet for a total of 12 weeks of study period during which their weekly body weight changes and non-fasting blood glucose values were recorded. […]

[2] = system: 60% high fat fed NZO or DIO mice; experiment: Body weight gain and visceral fat in high fat fed mice
Description: Twenty NZO and DIO/B6 female mice were maintained on a high fat diet consisted of 60% kcal fat, 20% kcal protein and 20% kcal carbohydrate, with a total energy mass of 5.24 kcal/gm (D12492, Research Diets Inc.; […] Tacrolimus (Prograf (5 mg/ml), Astellas) was administered subcutaneously in a dose of 0.1 mg/kg q2d in 0.2 ml saline for three weeks to the obese and glucose intolerant NZO and DIO mice starting at the age of 10 weeks after which animals were mated to males of the same strain and pregnancy was dated from the morning of the positive detection of vaginal (copulation) plug. See FIG. 2. Facial (mandibular) venous blood samples were collected from treated animals at 24 and 48 hours between injections and at pregnancy days 0.5, 2.5, 4.5, 6.5, 8.5, 10.5, 12.5, 14.5, 16.5 and 18.5, respectively, following a standard procedure for facial bleed in mice (Golde et al. Lab Anim (NY) 2005 34:39-43). A lean cohort of control B6 and BALBc mice was fed with a regular 10 kcal % control chow diet containing the same protein content as the high fat diet with a total energy mass of 3.1 kcal/g (D12450Bi, Cedarlane, Ontario).

NOD, NZO and DIO mice = experiment: Ovarian function, serum estrogen/progesterone, follicle counts and uterine weight ratio
Description: Using Papanicolaou's staining kit (Sigma Aldrich, Oakville, Ontario, Canada), staining of vaginal smears obtained between 09:00-10:00 AM was performed to identify the phases of the estrous cycle and to establish the individual animal cycling pattern as previously described (Koss L. G (Ed): The Papanicolaou Stain. In Diagnostic Cytology and its Histopathological Bases. 4th Edit. Koss, Leopold; Melamed and Myron R. Eds. J.B. Lippincott Williams & Wilkins (LWW), Philadelphia. 1992; Vol. 2: 1211-1221). Blood and virgin uteri were collected from nulliparous diabetic NOD females, at the proestrus, estrus and the metestrus phase, respectively, after four weeks in diabetes. Blood and uteri were also collected from age-matched, tacrolimus-treated nulliparous NOD mice immediately after completing the treatment schedule.
Fifty four NOD mice at the prediabetic and early diabetic stages were carefully selected to match the criteria of being 2 standard deviation heavier in body weight than their age-matched normoglycemic control mice and having blood glucose value of >14.9 mM/1 during the glucose tolerance test. The selected mice were 9 weeks old and were treated with 0.1 mg/kg q2d of tacrolimus (Prograf (5 mg/ml), Astellas) subcutaneously administered in 0.2 ml saline for three weeks after which animals were mated to males of the same strain (See FIG. 1). Vehicle (0.2 ml saline, s.q.) treated hyperglycemic NOD female mice were allowed two weeks in diabetes before they were mated to males of the same strain. Facial (mandibular) venous blood samples were collected from treated animals at 24 and 48 hours between injections and at pregnancy days 0.5, 2.5, 4.5, 6.5, 8.5, 10.5, 12.5, 14.5, 16.5 and 18.5 respectively following a standard procedure for facial bleed in mice (Golde et al Lab Anim (NY) 2005 34:39-43).
Twenty NZO and DIO/B6 female mice were maintained on a high fat diet consisted of 60% kcal fat, 20% kcal protein and 20% kcal carbohydrate, with a total energy mass of 5.24 kcal/gm (D12492, Research Diets Inc.; Cedarlane Laboratories, Burlington, Ontario, Canada) starting at 7 weeks of age and maintained on the diet for a total of 12 weeks of study period during which their weekly body weight changes and non-fasting blood glucose values were recorded. Mice which became obese as defined by having a Body mass index (BMI) value of 30, and tested positive for glucose intolerance were selected for an initial treatment episode with tacrolimus after being fed for four weeks with the high fat diet (See FIG. 2). Tacrolimus (Prograf (5 mg/ml), Astellas) was administered subcutaneously in a dose of 0.1 mg/kg q2d in 0.2 ml saline for three weeks to the obese and glucose intolerant NZO and DIO mice starting at the age of 10 weeks after which animals were mated to males of the same strain and pregnancy was dated from the morning of the positive detection of vaginal (copulation) plug. Facial (mandibular) venous blood samples were collected from treated animals at 24 and 48 hours between injections and at pregnancy days 0.5, 2.5, 4.5, 6.5, 8.5, 10.5, 12.5, 14.5, 16.5 and 18.5, respectively, following a standard procedure for facial bleed in mice (Golde et al. Lab Anim (NY) 2005 34:39-43). A lean cohort of control B6 and BALBc mice was fed with a regular 10 kcal % control chow diet containing the same protein content as the high fat diet with a total energy mass of 3.1 kcal/g (D12450Bi, Cedarlane, Ontario). […]

[3] = short-term administration, FIG. 3B

C=CC[C@@H]1/C=C(\C)C[C@H](C)C[C@H](OC)[C@H]2O[C@@](O)(C(=O)C(=O)N3CCCC[C@H]3C(=O)O[C@H](/C(C)=C/[C@@H]3CC[C@@H](O)[C@H](OC)C3)[C@H](C)[C@@H](O)CC1=O)[C@H](C)C[C@@H]2OC [tacrolimus]
anti-inflammatory cytokines IL-1ra, IL10 and IL2 in uteri ([1]; diabetes prone mice, FIG. 12): inhibition of some anti-inflammatory cytokines such as IL-1ra, IL10 and IL2
cytokines involved in inflammation, T-cell cytotoxicity and blood coagulation ([1]; peri-implantation, FIG. 8): pan-inhibition of cytokines involved in inflammation, T-cell cytotoxicity and blood coagulation
uterine expression of MCP1, MCP5, MIG9, RANTES, SDF-1, KC ([1]; peri-implantation, FIG. 9): significantly downregulated the uterine expression of six major IFN-γ-regulated inflammatory cytokines
Th1-induced cytokines (IFN-γ, IL16, TNFα, IL12 family) in uteri ([1]; short-term administration prior to mating, peri-implantation): significant inhibition of the vast majority of Th1-induced cytokines
IL12 family cytokines in uteri ([1]; time of implantation, FIG. 7F): downregulating members of IL12 family cytokines
IL5, IL7 and IL13 expression in uteri ([1]; time of implantation, FIG. 11): restored normalized levels of IL5, IL7 and IL13 expression
rates of embryonic and fetal resorption (NOD and NZO mice): reduced rates of embryonic and fetal resorption
implantation rate (NOD and NZO mice; pregnancy days 4.5 and 6.5): enhanced implantation rate
body weight gain ([2]; after the initial administration, FIG. 19B): prevented body weight gain for seven consecutive weeks
mass of the visceral fat ([2]; all treated mice): significantly lower
ovulation (NOD, NZO and DIO mice; 0.1 mg/kg q2d s.c. for three weeks): enhanced ovulation
ovarian secretion of estrogen and progesterone (NOD, NZO and DIO mice; 0.1 mg/kg q2d s.c. for three weeks, peri- and post-implantation): normalized ovarian secretion of estrogen and progesterone
uterine growth (uterine weight ratio) (NOD, NZO and DIO mice; early proliferative phase (proestrus) of estrous cycle, FIG. 3C): significant improvement in uterine growth
numbers of atretic follicles (NOD, NZO and DIO mice; [3]): reduced numbers of atretic follicles
numbers of secondary follicles, antral follicles and corpora lutea (NOD, NZO and DIO mice; [3]): increased numbers of secondary follicles (FIG. 3B: S), antral follicles (FIG. 3B: A) and corpora lutea (FIG. 3B: CL)
